Measurements from paper PMC9865752, “Design and Synthesis of (Z)-2-(Benzylamino)-5-benzylidenethiazol-4(5H)-one Derivatives as Tyrosinase Inhibitors and Their Anti-Melanogenic and Antioxidant Effects” (Molecules, 2023).
Like-named read-outs stand apart in the source and are kept apart here.

Assays:
[1] = DPPH radical scavenging assay; conditions: test samples 500 µM; DPPH 0.18 mM; 30 min in the dark
Description: DPPH is a light-sensitive compound containing free radicals. The DPPH assay is one of the most common methods for evaluating the antioxidant activity of a compound. The effects of BABT derivatives on DPPH radical scavenging activities were evaluated using L-ascorbic acid as a positive reference control. DPPH radical scavenging activities were measured after leaving the mixed samples (test samples of 500 µM plus DPPH solution of 0.18 mM) in the dark for 30 min. To determine the radical scavenging activities, the absorbance of the mixed samples was measured at 517 nm.
According to previously described methods, with minor modifications, the DPPH radical scavenging activities of BABT derivatives 1–14 were measured. A DPPH (0.2 mM) and methanol solution (180 µL) was mixed with 20 µL of a DMSO solution containing 5 mM BABT derivative, or with 20 µL of an aqueous solution of 5 mM L-ascorbic acid, in each well of a 96-well plate and kept at ambient temperature in the dark for 30 min. The optical density of each well was measured at 517 nm using a microplate reader (VersaMax; Molecular Devices). L-Ascorbic acid was used as a positive reference control, and the DPPH radical scavenging abilities of BABT derivatives were compared with those of L-ascorbic acid. All experiments were performed independently, thrice.

[2] = test system: B16F10 cells; assay: Cell viability (EZ-Cytox assay); type: cell-based, murine; conditions: 0, 1, 2, 5, 10, 20 µM
Description: Before these experiments were performed, the influence of these derivatives on cytotoxicity in B16F10 cells was examined to determine their optimal concentration range for B16F10 cell experiments. The cytotoxicity of derivatives 7 and 8 at six concentrations (0, 1, 2, 5, 10, and 20 µM) was assessed using the EZ-Cytox assay.
Cytotoxicity assays in B16F10 cells were performed using the EZ-Cytox solution (EZ-3000, DoGenBio, Seoul, Republic of Korea). Briefly, B16F10 cells were seeded at a density of 1 × 10^4 cells per well and cultured at 37 °C in a 5% CO2 atmosphere for 24 h. […] Then, the EZ-Cytox solution (10 μL aliquot) was added to each well. After 2 h of incubation at 37 °C, the optical density of each well was measured at 450 nm using a microplate reader (VersaMax; Molecular Devices).

[3] = target: T1, mushroom tyrosinase (Agaricus bisporus, UniProt C7FF04); assay: Kinetic studies of mushroom tyrosinase inhibition (Lineweaver–Burk and Dixon plots); type: biochemical; conditions: substrate L-dopa
T1 construct: purchased
Description: Kinetic studies using Lineweaver–Burk plots were performed using four different concentrations (0, 0.5, 1, and 2 µM) of the test derivatives (7 and 8) and five different concentrations (0.5, 1, 2, 4, and 8 mM for 7, and 1, 2, 4, 8, and 16 mM for 8) of L-dopa.
Lineweaver–Burk plots for 7 and 8 were transformed into the corresponding Dixon plots to determine their inhibition constant (Ki) values for the mushroom tyrosinase–inhibitor complex. […] The Ki values for the mushroom tyrosinase–inhibitor complex were obtained from the x-axis value of each convergence point.
Lineweaver–Burk plots of derivatives 7 and 8 were obtained in the presence of L-dopa as the substrate. Briefly, 20 µL aliquots of mushroom tyrosinase aqueous solution (200 units/mL) were added to each well of a 96-well plate containing 10 µL BABT derivative (7 or 8) DMSO solution (final concentrations: 0, 0.5, 1, and 2 µM) and 170 µL of an aqueous solution containing L-dopa (final concentrations: 1.0, 2.0, 4.0, 8.0, and 16.0 mM) and sodium phosphate buffer (pH 6.5, 17.2 mM). The initial rate of dopachrome formation was determined by examining the changes in absorbance at a wavelength of 475 nm (ΔOD475/min) using a microplate reader (VersaMax; Molecular Devices).

[4] = target: mushroom tyrosinase; assay: Mushroom tyrosinase inhibition assay; type: biochemical; conditions: for IC50: mean ± SEM of three experiments
Description: As mushroom tyrosinase is commercially available and relatively cheap, it is used as a tool for the identification of novel tyrosinase inhibitors. Here, we examined the tyrosinase inhibitory activities of the 14 BABT derivatives against mushroom tyrosinase in the presence of L-tyrosine or L-dopa as substrates.
Mushroom tyrosinase inhibitory activities of BABT derivatives were determined as described previously, with minor modifications. L-Tyrosine and L-dopa were used as substrates to evaluate the enzyme activity. […] Assay mixtures were incubated at 37 °C for 30 min, and dopachrome amounts synthesized were determined by measuring the optical density of each well at 475 nm using a microplate reader (VersaMax; Molecular Devices, Sunnyvale, CA, USA).

[5] = SIN-1-induced ROS scavenging assay; conditions: 20 µM; SIN-1 as ROS generator; DCFH-DA probe
Source text: The scavenging activities of the BABT derivatives 1–14 against ROS and peroxynitrite (ONOO^−) were investigated because the antioxidant activities of the compounds may modulate melanogenesis. To measure the ROS scavenging activities of BABT derivatives, 2′,7′-dichlorodihydrofluorescein diacetate (DCFH-DA) and 3-morpholinosydnonimine (SIN-1) were used as a fluorogenic probe and ROS generator, respectively. The reaction of DCFH-DA with esterase produces 2′,7′-dichlorodihydrofluorescein (DCFH), which generates the fluorescent compound 2′,7′-dichlorofluorescein (DCF) by reacting with ROS produced by SIN-1. Therefore, ROS scavenging activities were determined by measuring the DCF fluorescence remaining after the BABT derivatives scavenged the ROS generated by SIN-1. […] BABT derivatives and Trolox, the positive control, were used at a concentration of 20 µM.
The ROS scavenging activities of the BABT derivatives were measured using an oxidant-sensitive fluorescent probe. Derivatives or Trolox (10 µL; final concentration: 20 µM) were seeded in a black 96-well plate. Then, 10 µL of SIN-1 (10 µM) was added to induce radical species generation and mixed with 180 µL of sodium phosphate buffer (pH 7.4) containing 12.5 µM DCF-DA and 600 units of esterase. Fluorescence intensity was measured at emission and excitation wavelengths of 535 and 485 nm, respectively, using a fluorescence microplate reader (Berthold Technologies GmbH & Co., Wien, Austria). Trolox was used as the positive control.

[6] = ABTS radical scavenging assay; conditions: test samples 100 µM; 2 min in the dark
Description: An antioxidant assay using ABTS is also commonly used to assess the antioxidant activities of compounds. Donation of one electron from ABTS to potassium persulfate generates the ABTS radical cation. An ABTS radical scavenging activity assay was performed using 100 µM of BABT derivatives or Trolox (a positive reference control) by mixing test samples with ABTS radical cations obtained from a reaction of potassium persulfate and ABTS. ABTS radical scavenging activity was assessed by measuring the optical density at 734 nm after leaving the test sample–ABTS radical cation mixture in the dark for 2 min.
According to a previously described method, with minor modifications, the ABTS radical scavenging activities of BABT derivatives 1–14 were assessed. Briefly, an ABTS radical solution was prepared by mixing 10 mL of aqueous ABTS solution (7 mM) with 10 mL of potassium persulfate aqueous solution (2.45 mM), and the mixture was kept for 11–15 h in the dark at room temperature until the absorbance remained constant. Prior to the antioxidant assay experiments, the ABTS radical solution was diluted with water to adjust the absorbance at 734 nm to 0.70 ± 0.02. A 10 µL aliquot of BABT derivatives or Trolox at a concentration of 1000 µM was added to 90 µL of ABTS+ free radical solution in each well of a 96-well plate and incubated for 2 min in the dark at ambient temperature. The absorbance of each well was measured at 734 nm using a microplate reader (VersaMax; Molecular Devices). The ABTS+ radical scavenging activities of BABT derivatives were compared to those of Trolox. All experiments were carried out independently, thrice.

[7] = Peroxynitrite scavenging assay; conditions: 20 µM; SIN-1 as generator; DHR123 probe
Description: The effects of the BABT derivatives on peroxynitrite scavenging activities were also examined using SIN-1 as an RNS generator and dihydrorhodamine (DHR123) as an ROS indicator. DHR123 was converted to fluorescent rhodamine 123 by peroxynitrite generated by SIN-1. Therefore, the peroxynitrite scavenging activities of 1–14 were assessed by measuring the fluorescence of rhodamine 123. BABT derivatives and penicillamine, the positive control, were used at a concentration of 20 µM.
The peroxynitrite scavenging activities of the BABT derivatives were assessed using the method developed by Kooy, involving the monitoring of highly fluorescent rhodamine 123, which was rapidly produced from non-fluorescent DHR123 in the presence of peroxynitrite. Rhodamine buffer (pH 7.4) was composed of 50 mM sodium phosphate dibasic, 50 mM sodium phosphate monobasic, 90 mM sodium chloride, 5 mM potassium chloride, and 100 µM DTPA. A 10 µL aliquot of BABT derivatives or PCA (final concentration: 20 µM) was seeded in a black 96-well plate. Then, 10 µL of SIN-1 (10 µM) was added to induce radical species generation and mixed with 180 µL of rhodamine buffer. Fluorescence intensity was measured at emission and excitation wavelengths of 535 and 485 nm, respectively, using a fluorescence microplate reader (Berthold Technologies GmbH & Co.). PCA was used as the positive control.

[8] = target: mushroom tyrosinase; design: method as in PMID 26235587; conditions: in the presence of L-tyrosine; cited from earlier work
[9] = substrate L-tyrosine, read-out: IC50 (µM) L-Tyrosine

T1 sequence (C7FF04 1-392): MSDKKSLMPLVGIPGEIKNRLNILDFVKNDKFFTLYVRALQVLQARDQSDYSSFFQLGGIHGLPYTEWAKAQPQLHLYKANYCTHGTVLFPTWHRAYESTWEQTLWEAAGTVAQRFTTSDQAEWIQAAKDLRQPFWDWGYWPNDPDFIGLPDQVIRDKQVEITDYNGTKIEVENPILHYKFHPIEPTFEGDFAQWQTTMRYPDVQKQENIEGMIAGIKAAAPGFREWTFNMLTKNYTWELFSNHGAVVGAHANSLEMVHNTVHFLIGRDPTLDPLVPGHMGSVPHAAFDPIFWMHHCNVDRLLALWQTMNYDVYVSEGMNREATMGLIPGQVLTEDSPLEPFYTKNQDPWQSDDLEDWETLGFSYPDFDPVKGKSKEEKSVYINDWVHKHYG

Q: What does the source list for `COc1ccc(/C=C2\SC(NCc3ccccc3)=NC2=O)cc1O` [Compound 7, (Z)-2-(benzylamino)-5-(3-hydroxy-4-methoxybenzylidene)thiazol-4(5H)-one]?
A: DPPH radical scavenging activity, % inhibition [1]: 47%; cytotoxicity ([2]; 72 h): showed cytotoxicity at a concentration of 20 µM; cytotoxicity ([2]; up to 48 h): not cytotoxic at all concentrations; Ki ([3]; Dixon plots, read-out: inhibition constant (Ki) for the mushroom tyrosinase–inhibitor complex): 3.1 µM; mode of inhibition ([3]; Lineweaver–Burk plots): competitive inhibitors; IC50 ([4]; substrate L-dopa, read-out: IC50 (µM) L-Dopa): 10.3 ± 0.24 µM; fold stronger tyrosinase inhibitory activity than derivative 5 ([4]; substrate L-tyrosine): 14.8 fold; IC50 [4, 9]: 10 ± 0.9 µM; ROS scavenging activity (in words) [5]: moderate ROS scavenging activities

Q: Which “DPPH radical scavenging activity, % inhibition” value [1] does the source give for `O=C1N=C(NCc2ccccc2)S/C1=C\c1ccc(O)c(O)c1` [Compound 9, (Z)-2-(benzylamino)-5-(3,4-dihydroxybenzylidene)thiazol-4(5H)-one] here?
A: 89%

Q: What about the “ABTS radical scavenging activity, % inhibition” value [6] of the same molecule?
A: 87%

Q: What about the “peroxynitrite scavenging activity (in words)” value [7] of the same molecule?
A: strong ROS and peroxynitrite scavenging activities

Q: And the “fold more potent than kojic acid” value ([4]; substrate L-dopa)?
A: 2 fold

Q: And the IC50 [4, 9]?
A: > 300 µM

Q: What about the “ROS scavenging activity (in words)” value [5] of the same molecule?
A: strongly reduced the ROS levels enhanced by SIN-1

Q: Which IC50 [8] does the source give for `O=C1N=C(Nc2nc3ccccc3s2)S/C1=C\c1ccc(O)cc1O` [MHY2081] here?
A: 1.8 µM

Q: Which results are given for `Cc1c(C)c2c(c(C)c1O)CCC(C)(C(=O)O)O2` (stereo not drawn) [Trolox, reference compound]?
A: ABTS radical scavenging activity, % inhibition [6]: 99%; ROS scavenging activity (in words) [5]: reduced the ROS levels enhanced by SIN-1
